The values below come from ChEMBL document CHEMBL1201862, “PubChem BioAssay data set” (2004).

Structures can show the parent of a compound that is named as a salt.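 Five compound concentrations were applied to cells in 96-well plates for 48 hours; endpoints were derived by simple linear interpolation of the resulting dose-response curve. GI50 marks 50% less growth.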 The source made the active and inactive calls. Rule as the data show it: active = GI50 up to about 1.1 µM and inactive = higher.

What all share (assay): NCI-60 cell line screen, 48 h
The subject of assay [1] is EKVX.
Assay [2] deals with NCI-H460.
Assay [3] deals with OVCAR-4.
Assay [4] deals with SF-295.
Assay [5] has as its system HT-29.
Assay [6] deals with UACC-62.
The test system of assay [7] is ACHN.
Assay [8] has as its system 786-0.
In assay [9] the test system is A498.
The subject of assay [10] is SW-620.
In assay [11] the test system is U-251.
Assay [12] concerns SNB-19.
Assay [13] concerns CCRF-CEM.
The test system of assay [14] is NCI-H226.
Assay [15] deals with MOLT-4.
Assay [16] has as its system UACC-257.
The test system of assay [17] is HCT-15.
Assay [18] deals with NCI-H522.

Regarding `CC(=O)OCc1cc(=O)n2c([nH]c3ccccc32)c1C#N`, the GI50 in [1] is 72.3 µM (inactive); in [2], 18.6 µM (inactive); in assay [3], 1.63 µM (inactive); in assay [4], 58.3 µM (inactive); in assay [5], 79.4 µM (inactive); in assay [6], 59.7 µM (inactive). Also, the GI50 is 52.4 µM (inactive) in assay [7]; 40.6 µM (inactive) in assay [8]; 69.2 µM (inactive) in assay [9]; 96.6 µM (inactive) in assay [10]; 34 µM (inactive) in [11]; 80.2 µM (inactive) in [12]. The GI50 in assay [13] was 19.3 µM (inactive); in [14] it was > 100 µM (inactive); in assay [15], 47.1 µM (inactive); in assay [16], > 100 µM (inactive); in [17], 21.8 µM.
For `Cc1n[nH]c(=O)n1/N=C/c1cccs1`, the GI50 in assay [1], in [2], in assay [3], in [4], in assay [5] and in assay [6] was > 100 µM (inactive) throughout. Moreover, the GI50 in assay [7], in [8], in assay [9], in [10], in assay [11] and in assay [12] was > 100 µM (inactive) in each case. The GI50 is > 100 µM (inactive) in [13], > 100 µM (inactive) in assay [14], > 100 µM (inactive) in assay [16] and above 100 µM in assay [17].
For the molecule `O/N=C/[C@H]1COC2(CCCCC2)O1`, the GI50 in assay [1], in [3], in assay [4], in [5], in assay [6] and in assay [7] was > 100 µM (inactive) in each case. For the same molecule, the GI50 in assay [8], in assay [9], in assay [10], in assay [11], in assay [12] and in assay [13] was > 100 µM (inactive) each time. The GI50 in [14] was > 100 µM (inactive); in assay [15], > 100 µM (inactive); in assay [16], > 100 µM (inactive); in assay [17] it was above 100 µM.
As for `Cn1c(COC(=O)NC2CCCCC2)c(COC(=O)NC2CCCCC2)c2ccc3cc(Cl)c(Cl)cc3c21`, the GI50 in assay [1] was 27.7 µM (inactive); in assay [2], 4.41 µM (inactive); in assay [4], 22.8 µM (inactive); in [5] it was 27.5 µM (inactive); in [6], 11 µM (inactive); in assay [7] it was 14.3 µM (inactive). For the same molecule, the GI50 in assay [8] is 6 µM (inactive); in [9], 12.7 µM (inactive); in assay [10], 6.79 µM (inactive); in assay [11] it was 6 µM (inactive); in assay [12] it was 11.1 µM (inactive); in assay [13], 3.27 µM (inactive). For the same molecule, the GI50 in assay [14] is 34.2 µM (inactive); in assay [15], 14.8 µM (inactive); in assay [16], 14.5 µM (inactive); in assay [17] it was 12.2 µM.
In the case of `CN(C)C(=O)C(F)(F)C(c1ccccc1Br)C1C(=O)N(C)C(=O)N(C)C1=O` (configuration not stated), the GI50 in assay [1], in assay [2], in assay [3], in [4], in assay [6] and in assay [7] was > 100 µM (inactive) in each case. The GI50 in assay [8], in [9], in [10], in [11], in [12] and in [13] was > 100 µM (inactive) each time. The GI50 in assay [14] was > 100 µM (inactive); in assay [16], > 100 µM (inactive); in assay [17], above 100 µM.
On to `CC(=O)OC12c3ccccc3C(c3ccccc31)C1C(=O)N(c3ccccn3)C(=O)C12` (configuration not stated), for which the GI50 in [1] is > 100 µM (inactive); in [3], > 100 µM (inactive); in assay [4], 58.2 µM (inactive); in [5], 62.4 µM (inactive); in assay [6] it was 91.6 µM (inactive); in assay [8] it was > 100 µM (inactive). Further, the GI50 in [10] was > 100 µM (inactive); in [11] it was > 100 µM (inactive); in assay [12], 14.7 µM (inactive); in assay [13], 57.1 µM (inactive); in assay [14] it was > 100 µM (inactive); in [15] it was 32.8 µM (inactive). For the same molecule, the GI50 in assay [16] was 31.3 µM (inactive); in [17], 69.3 µM.
`[O-][n+]1c2cccc(O)c2[n+]([O-])c2cccc(O)c21`: the GI50 in [1] was 23.8 µM (inactive); in assay [2], 30.1 µM (inactive); in [3], 42.7 µM (inactive); in assay [4], 57.9 µM (inactive); in [5], > 100 µM (inactive); in [7], 14.2 µM (inactive). Moreover, the GI50 was 30.2 µM (inactive) in assay [8]; > 100 µM (inactive) in assay [9]; 47.9 µM (inactive) in assay [10]; 43.3 µM (inactive) in assay [11]; 92 µM (inactive) in assay [12]; 5.56 µM (inactive) in [13]. Also, the GI50 in assay [15] was 3.99 µM (inactive); in [16], 37.9 µM (inactive); in assay [17] it was 46.6 µM; in assay [18] it was 20.4 µM (inactive).
For `O=C(O)C1CCCCN1CCc1c[nH]c2ccccc12` (configuration not stated), the GI50 in assay [1], in assay [2], in [3], in assay [4], in assay [5] and in assay [6] was > 100 µM (inactive) in each case. The GI50 in assay [7], in assay [8], in assay [10], in assay [11], in assay [12] and in assay [13] was > 100 µM (inactive) in each case. Besides, the GI50 in [14] was > 100 µM (inactive); in assay [15] it was > 100 µM (inactive); in assay [16], > 100 µM (inactive); in [17], above 100 µM; in assay [18], > 100 µM (inactive).
On to `C=C1C[C@@H]2CC[C@@]34C[C@H]5O[C@H]6[C@@H](O3)[C@H]3O[C@H](CC[C@@H]3O[C@H]6[C@H]5O4)CC(=O)C[C@@H]3[C@@H](OC)[C@@H](C[C@H](O)CN)O[C@H]3C[C@H]3O[C@@H](CC[C@@H]1O2)C[C@@H](C)C3=C` [ERIBULIN MESYLATE], for which the GI50 in assay [1] is 0.007 µM (active); in assay [2] it was 0.00172 µM (active); in assay [3], 0.00319 µM (active); in [4], 0.0065 µM (active); in [5], 0.000352 µM (active); in [6], 0.000711 µM (active). Also, the GI50 was 0.0556 µM (active) in assay [7]; 0.00328 µM (active) in [8]; 0.00434 µM (active) in [9]; 0.00241 µM (active) in assay [10]; 0.00134 µM (active) in assay [11]; 0.000522 µM (active) in assay [14]. Moreover, the values for the GI50 in [15], in assay [17] and in assay [18] were 0.000791 µM (active), 0.053 µM and 0.00025 µM (active), respectively.
